US11958831B2, “Pyrazole compounds, pharmaceutical compositions thereof and use thereof” (ARTIVILA (SHENZHEN) INNOVATION CENTER, LTD., priority 2018, dated 2024)

The molecules below were run against IRAK4 kinase (Homo sapiens (Human), UniProt Q9NWZ3) (assay: IRAK4 kinase activity assay (mobility shift, Km ATP)). Conditions: Km ATP (15.6 μM ATP), 1 nM IRAK4, 60 min room temperature.
Format: biochemical
Method: Inhibitory activity (IC50) of the compounds against IRAK4 kinase under Km ATP was detected through mobility spectrum analysis (MSA). IRAK4 kinase was purchased from Carna (Cat. No.: 09-145, batch No.: 14CBS-0020H), and Kinase Substrate 8 was purchased from GL Biochem (Cat. No.: 112396, batch No.: P171207-MJI112396).
The compounds were prepared with DMSO to 100 times the final reaction concentration and diluted to 10 concentrations in sequence at a 3-fold dilution ratio starting from 1 μM. Then 0.25 μL was transferred to a 384-well plate using Echo550. A 1× kinase buffer (50 mM HEPES, pH=7.5, 0.0015% Brij-35, 10 mM MgCl2, 2 mM DTT) was used to prepare a kinase solution of 2.5 times the final concentration. Then 10 μL of the kinase solution of 2.5 times the final concentration was added to each compound well, shaken and mixed uniformly, and incubated at room temperature for 10 min. A 1× kinase buffer was used to prepare a mixed solution of ATP and substrate Kinase Substrate 8 with a concentration of 25/15 times the final concentration. 15 μL of the mixed solution of ATP and the substrate with a concentration of 25/15 times the final concentration were added to each well (the final concentration of IRAK4 kinase was 1 nM, the final concentration of the substrate was 3 μM, and the final concentration of ATP was 15.6 μM), shaken and mixed uniformly, and reacted at room temperature for 60 min. Finally, 30 μL of stopping solution (100 mM HEPES, pH=7.5, 0.0015% Brij-35, 0.2% Coating Reagent #3, 50 mM EDTA) was added to terminate the reaction. CaliperEZ Reader II was used to read data about conversion rates that was then converted into data about inhibition rates. According to the data about the inhibition rate at each concentration, the half maximal inhibitory concentration (IC50) (Table 1) was calculated by a Logit method.

Sequence of IRAK4 kinase (Q9NWZ3 whole entry): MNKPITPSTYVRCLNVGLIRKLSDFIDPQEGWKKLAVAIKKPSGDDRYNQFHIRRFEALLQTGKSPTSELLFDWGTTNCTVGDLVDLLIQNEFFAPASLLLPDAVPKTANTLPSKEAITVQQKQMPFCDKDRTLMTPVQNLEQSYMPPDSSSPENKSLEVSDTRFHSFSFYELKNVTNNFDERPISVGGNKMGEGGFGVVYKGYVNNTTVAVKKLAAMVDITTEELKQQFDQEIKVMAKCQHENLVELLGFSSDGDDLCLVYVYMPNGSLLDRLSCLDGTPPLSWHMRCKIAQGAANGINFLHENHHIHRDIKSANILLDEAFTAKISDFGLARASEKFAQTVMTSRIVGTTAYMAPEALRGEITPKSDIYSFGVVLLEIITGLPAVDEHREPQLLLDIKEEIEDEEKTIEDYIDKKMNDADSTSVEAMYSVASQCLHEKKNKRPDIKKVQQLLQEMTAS

IC50 | Compound
2.5 nM | CC(=O)N1CCC(N2CC(n3cc(NC(=O)c4cccc(-c5cnn(C6(C#N)CC6)c5)n4)c(C(F)F)n3)C2)CC1 [Example 9, N-(1-(1-(1-acetylpiperidin-4-yl)azetidin-3-yl)-3-(difluoromethyl)-1H-pyrazol-4-yl)-6-(1-(1-cyanocyclopropyl)-1H-pyrazol-4-yl)-2-picolinamide]
3.2 nM | CN(C)C(=O)N1CCC(N2CC(n3cc(NC(=O)c4cccc(-c5cn[nH]c5)n4)c(C(F)F)n3)C2)CC1 [Example 20, N-(3-(difluoromethyl)-1-(1-(1-(dimethylcarbamoyl)piperidin-4-yl)azetidin-3-yl)-1H-pyrazol-4-yl)-6-(1H-pyrazol-4-yl)-2-picolinamide]
0.54 nM | CCC(=O)N1CCC(N2CC(n3cc(NC(=O)c4cccc(-c5cc[nH]n5)n4)c(C(F)F)n3)C2)CC1 [Example 26, N-(3-(difluoromethyl)-1-(1-(1-propionylpiperidin-4-yl)azetidin-3-yl)-1H-pyrazol-4-yl)-6-(1H-pyrazol-3-yl)-2-picolinamide]
3.9 nM | CC(=O)N1CCC(N2CC(n3cc(NC(=O)c4cccc(-c5cnn(CC(C)(C)O)c5)n4)c(C(F)F)n3)C2)CC1 [Example 15, N-(1-(1-(1-acetylpiperidin-4-yl)azetidin-3-yl)-3-(difluoromethyl)-1H-pyrazol-4-yl)-6-(1-(2-hydroxy-2-methylpropyl)-1H-pyrazol-4-yl)-2-picolinamide]
4.2 nM | CC(=O)N1CCC(N2CC(n3cc(NC(=O)c4cccc(-c5cnn(C)c5)n4)c(C(F)F)n3)C2)CC1 [Example 6, N-(1-(1-(1-acetylpiperidin-4-yl)azetidin-3-yl)-3-(difluoromethyl)-1H-pyrazol-4-yl)-6-(1-methyl-1H-pyrazol-4-yl)-2-picolinamide]
1.9 nM | CC(=O)N1CCC(N2CC(n3cc(NC(=O)c4cccc(-c5cnn(C(C)C)c5)n4)c(C(F)F)n3)C2)CC1 [Example 8, N-(1-(1-(1-acetylpiperidin-4-yl)azetidin-3-yl)-3-(difluoromethyl)-1H-pyrazol-4-yl)-6-(1-isopropyl-1H-pyrazol-4-yl)-2-picolinamide]
0.68 nM | CN(C)C(=O)N1CCC(N2CC(n3cc(NC(=O)c4cccc(-c5cc[nH]n5)n4)c(C(F)F)n3)C2)CC1 [Example 28, N-(3-(difluoromethyl)-1-(1-(1-(dimethylcarbamoyl)piperidin-4-yl)azetidin-3-yl)-1H-pyrazol-4-yl)-6-(1H-pyrazol-3-yl)-2-picolinamide]
1.9 nM | CC(=O)N1CCC(N2CC(n3cc(NC(=O)c4cccc(-c5cn[nH]c5)n4)c(C(F)F)n3)C2)CC1 [Example 19, N-(1-(1-(1-acetylpiperidin-4-yl)azetidin-3-yl)-3-(difluoromethyl)-1H-pyrazol-4-yl)-6-(1H-pyrazol-4-yl)-2-picolinamide]

The next lines start with the molecule.

Compound | IC50
CN(C)C(=O)N1CCC(N2CC(n3cc(NC(=O)c4cccc(-c5cnn(CC(F)F)c5)n4)c(C(F)F)n3)C2)CC1 [Example 38, 6-(1-(2,2-Difluoroethyl)-1H-pyrazol-4-yl)-N-(3-(difluoromethyl)-1-(1-(1-(dimethylcarbamoyl)piperidin-4-yl)azetidin-3-yl)-1H-pyrazol-4-yl)-2-picolinamide] | 1.5 nM
C=CC(=O)N1CCC(N2CC(n3cc(NC(=O)c4cccc(-c5cc[nH]n5)n4)c(C(F)F)n3)C2)CC1 [Example 23, N-(1-(1-(1-acryloylpiperidin-4-yl)azetidin-3-yl)-3-(difluoromethyl)-1H-pyrazol-4-yl)-6-(1H-pyrazol-3-yl)-2-picolinamide] | 0.63 nM
CC(=O)N1CCC(N2CC(n3cc(NC(=O)c4cccc(-c5cnn(C6(CO)CCC6)c5)n4)c(C(F)F)n3)C2)CC1 [Example 14, N-(1-(1-(1-acetylpiperidin-4-yl)azetidin-3-yl)-3-(difluoromethyl)-1H-pyrazol-4-yl)-6-(1-(1-(hydroxymethyl)cyclobutyl)-1H-pyrazol-4-yl)-2-picolinamide] | 3.2 nM
CCn1cc(-c2cccc(C(=O)Nc3cn(C4CN(C5CCN(C(C)=O)CC5)C4)nc3C(F)F)n2)cn1 [Example 7, N-(1-(1-(1-acetylpiperidin-4-yl)azetidin-3-yl)-3-(difluoromethyl)-1H-pyrazol-4-yl)-6-(1-ethyl-1H-pyrazol-4-yl)-2-picolinamide] | 3.3 nM
C[C@H](O)C(=O)N1CCC(N2CC(n3cc(NC(=O)c4cccc(-c5cc[nH]n5)n4)c(C(F)F)n3)C2)CC1 [Example 39, (S)—N-(3-(difluoromethyl)-1-(1-(1-(2-hydroxypropionyl)piperidin-4-yl)azetidin-3-yl)-1H-pyrazol-4-yl)-6-(1H-pyrazol-3-yl)-2-picolinamide] | 0.69 nM
CS(=O)(=O)N1CCC(N2CC(n3cc(NC(=O)c4cccc(-c5cnn(CC(F)(F)F)c5)n4)c(C(F)F)n3)C2)CC1 [Example 33, N-(3-(difluoromethyl)-1-(1-(1-(methylsulfonyl)piperidin-4-yl)azetidin-3-yl)-1H-pyrazol-4-yl)-6-(1-(2,2,2-trifluoroethyl)-1H-pyrazol-4-yl)-2-picolinamide] | 4.9 nM
C[C@H](O)C(=O)N1CCC(N2CC(n3cc(NC(=O)c4cccc(-c5cnn(CC(F)(F)F)c5)n4)c(C(F)F)n3)C2)CC1 [Example 30, (S)—N-(3-(difluoromethyl)-1-(1-(1-(2-hydroxypropionyl)piperidin-4-yl)azetidin-3-yl)-1H-pyrazol-4-yl)-6-(1-(2,2,2-trifluoroethyl)-1H-pyrazol-4-yl)-2-picolinamide] | 3.3 nM
CC(=O)N1CCC(N2CC(n3cc(NC(=O)c4cccc(-c5cnn(C(C)(C)CO)c5)n4)c(C(F)F)n3)C2)CC1 [Example 16, N-(1-(1-(1-acetylpiperidin-4-yl)azetidin-3-yl)-3-(difluoromethyl)-1H-pyrazol-4-yl)-6-(1-(1-hydroxy-2-methylpropyl-2-yl)-1H-pyrazol-4-yl)-2-picolinamide] | 1.8 nM
CC(=O)N1CCC(N2CC(n3cc(NC(=O)c4cccc(-c5cnn(C6(CN)CCC6)c5)n4)c(C(F)F)n3)C2)CC1 [Example 11, N-(1-(1-(1-acetylpiperidin-4-yl)azetidin-3-yl)-3-(difluoromethyl)-1H-pyrazol-4-yl)-6-(1-(1-(aminomethyl)cyclobutyl)-1H-pyrazol-4-yl)-2-picolinamide] | 1.6 nM
CC(=O)N1CCC(N2CC(n3cc(NC(=O)c4cccc(-c5cnn(C6(C#N)CCC6)c5)n4)c(C(F)F)n3)C2)CC1 [Example 10, N-(1-(1-(1-acetylpiperidin-4-yl)azetidin-3-yl)-3-(difluoromethyl)-1H-pyrazol-4-yl)-6-(1-(1-cyanocyclobutyl)-1H-pyrazol-4-yl)-2-picolinamide] | 2 nM
CS(=O)(=O)N1CCC(N2CC(n3cc(NC(=O)c4cccc(-c5cnn(CC(F)F)c5)n4)c(C(F)F)n3)C2)CC1 [Example 37, 6-(1-(2,2-Difluoroethyl)-1H-pyrazol-4-yl)-N-(3-(difluoromethyl)-1-(1-(1-(methylsulfonyl)piperidin-4-yl)azetidin-3-yl)-1H-pyrazol-4-yl)-2-picolinamide] | 5.8 nM
CN(C)C(=O)N1CCC(N2CC(n3cc(NC(=O)c4cccc(-c5cnn(C(C)(C)CN)c5)n4)c(C(F)F)n3)C2)CC1 [Example 17, 6-(1-(1-Amino-2-methylpropan-2-yl)-1H-pyrazol-4-yl)-N-(3-(difluoromethyl)-1-(1-(1-(dimethylcarbamoyl)piperidin-4-yl)azetidin-3-yl)-1H-pyrazol-4-yl)-2-picolinamide] | 0.57 nM
CC(C)C(=O)N1CCC(N2CC(n3cc(NC(=O)c4cccc(-c5cc[nH]n5)n4)c(C(F)F)n3)C2)CC1 [Example 29, N-(3-(difluoromethyl)-1-(1-(1-isobutyrylpiperidin-4-yl)azetidin-3-yl)-1H-pyrazol-4-yl)-6-(1H-pyrazol-3-yl)-2-picolinamide] | 0.81 nM
CC(=O)N1CCC(N2CC(n3cc(NC(=O)c4cccc(-c5cnn(C(F)F)c5)n4)c(C(F)F)n3)C2)CC1 [Example 5, N-(1-(1-(1-acetylpiperidin-4-yl)azetidin-3-yl)-3-(difluoromethyl)-1H-pyrazol-4-yl)-6-(1-(difluoromethyl)-1H-pyrazol-4-yl)-2-picolinamide] | 4.3 nM
CS(=O)(=O)N1CCC(N2CC(n3cc(NC(=O)c4cccc(-c5cc[nH]n5)n4)c(C(F)F)n3)C2)CC1 [Example 42, N-(3-(difluoromethyl)-1-(1-(1-(methylsulfonyl)piperidin-4-yl)azetidin-3-yl)-1H-pyrazol-4-yl)-6-(1H-pyrazol-3-yl)-2-picolinamide] | 1.2 nM
C=CC(=O)N1CCC(N2CC(n3cc(NC(=O)c4cccc(-c5cn[nH]c5)n4)c(C(F)F)n3)C2)CC1 [Example 22, N-(1-(1-(1-acryloylpiperidin-4-yl)azetidin-3-yl)-3-(difluoromethyl)-1H-pyrazol-4-yl)-6-(1H-pyrazol-4-yl)-2-picolinamide] | 2.5 nM
